Measured values reported in patent US5952321A, “Substituted azetidinones as anti-inflammatory and antidegenerative agents” (Merck & Co., Inc., priority 1996, dated 1999).
Structures can show the parent of a compound that is named as a salt.

These compounds were tested against T1, HUMAN PROTEINASE 3 (Homo sapiens, UniProt P24158) (assay: Inhibition of PR3 catalyzed hydrolysis of MeO-Succ-AAPV-pNA). Details: Table IV; 45 mM TES pH 7.5, 450 mM NaCl, 10% DMSO; 0.2 mM MeO-succ-AAPV-pNA; read-out: SORC (second order rate constant, kobs /I).
T1 sequence (P24158 28-256): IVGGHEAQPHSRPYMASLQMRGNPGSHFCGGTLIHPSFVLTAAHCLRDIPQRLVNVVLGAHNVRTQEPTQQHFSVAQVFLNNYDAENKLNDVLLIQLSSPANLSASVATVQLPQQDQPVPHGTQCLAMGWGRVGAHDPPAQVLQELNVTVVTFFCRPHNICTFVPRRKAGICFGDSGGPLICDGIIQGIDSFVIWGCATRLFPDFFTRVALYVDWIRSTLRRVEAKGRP
Assay type: biochemical
Description: The PR3 catalyzed hydrolysis of MeO-Succ-AAPV-pNA was measured in a spectrophotometer monitoring absorbance at 410 nm. The enzymatic activity was determined in 45 mM TES at pH 7.5, 450 mM NaCl and 10% DMSO. The data were fit by non-linear regression to equation 1 to obtain the initial rates. The nonlinear progress curves observed with time dependent inhibitors were fit to equation 2 to obtain the first order rate constant Kobs. Results were expressed as kobs /I which is the second order rate constant (SORC) in per mole per second for inactivation of the enzyme.
Y=vs *x+[(vo -vs) (1-e^(-K.spsb.o^*x))/Ko
Kinetic constants for the inhibition of PR3 catalyzed hydrolysis of 0.2 mM MeO-succ-AAPV-pNA were determined by varying the concentration of inhibitor present in the reaction vessel.
A kinact/KI of 31000 M⁻¹ s⁻¹ was found for CCC[C@@H](NC(=O)N1C(=O)C(CC)(CC)[C@@H]1Oc1ccc(C(C)N(C)CCOC)cc1)c1ccc2c(c1)OCO2 (some centres unmarked) in this work.

The compounds below were run against T2, Human Polymorphonuclear Leukocyte Elastase (Homo sapiens, UniProt P08246) (assay: Inhibition of human polymorphonuclear leukocyte elastase via hydrolysis of Boc-AAPAN or Boc-AAPVN). Details: pH 7.5, Table I; second order rate constant for inactivation of the enzyme; read-out: Kobs /[I].
T2 sequence (P08246 30-267): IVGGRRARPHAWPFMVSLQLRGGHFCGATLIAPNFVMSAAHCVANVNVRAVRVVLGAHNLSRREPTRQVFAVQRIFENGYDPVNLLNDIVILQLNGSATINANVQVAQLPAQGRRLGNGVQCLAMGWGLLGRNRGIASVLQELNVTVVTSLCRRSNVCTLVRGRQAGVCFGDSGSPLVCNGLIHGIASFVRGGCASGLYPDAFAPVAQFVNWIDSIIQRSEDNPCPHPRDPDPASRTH
Assay type: biochemical
How it was run: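 Crude human PMN extract was added to 0.2 mM Boc-AAPAN or Boc-AAPVN substrate solution in 0.05 M TES pH 7.5 containing inhibitor in DMSO; extract volume was adjusted per batch activity. Hydrolysis was followed as ΔOD/min at 410 mμ, after a pre-check for spontaneous hydrolysis. Values are ID50 (μg/ml, 50% inhibition at 2 min), Ki (μM) or kobs/I.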
A kinact/KI of 1.7e+06 M⁻¹ s⁻¹ was found for CCC[C@@H](NC(=O)N1C(=O)C(CC)(CC)[C@@H]1Oc1ccc(CN2CCN(C(=O)c3ccccc3)CC2)cc1)c1ccc(C)cc1 [R4+R5=--CH2 CH2 N(Bz)CH2 CH2 --; R6=H] in this work.
A kinact/KI of 1.55e+06 M⁻¹ s⁻¹ was found for CCC[C@@H](NC(=O)N1C(=O)C(CC)(CC)[C@@H]1Oc1ccc(CN2CCN(C(=O)N(C)C)CC2)cc1)c1ccc(C)cc1 [(4S)-3,3-Diethyl-1-[(R)-α-n-propyl-(4-methyl)benzylaminocarbonyl]-4-[(4-((4-dimethylaminocarbonyl)piperazin-1-yl)methyl)phenoxy]azetidin-2-one] in this work.
A kinact/KI of 950000 M⁻¹ s⁻¹ was found for CCC[C@@H](NC(=O)N1C(=O)C(CC)(CC)[C@@H]1Oc1ccc(CN2CCC[C@H]2CO)cc1)c1ccc(C)cc1 [R4+R5=--CH2 CH2 CH2 CH(S--CH2 OH); R6=H] in this work.
A kinact/KI of 1.25e+06 M⁻¹ s⁻¹ was found for CCC[C@@H](NC(=O)N1C(=O)C(CC)(CC)[C@@H]1Oc1ccc(CN(C)CCN(C)Cc2ccccc2)cc1)c1ccc(C)cc1 [R4=Me; R5=CH2 CH2 N(Me)Bn; R6=H] in this work.
A kinact/KI of 1.4e+06 M⁻¹ s⁻¹ was found for CCC[C@@H](NC(=O)N1C(=O)C(CC)(CC)[C@@H]1Oc1ccc(CN2CCN(C(=O)N(CC)CC)CC2)cc1)c1ccc(C)cc1 in this work.
A kinact/KI of 1.3e+06 M⁻¹ s⁻¹ was found for CCC[C@@H](NC(=O)N1C(=O)C(CC)(CC)[C@@H]1Oc1ccc(CN(CC)CCOCCOC)cc1)c1ccc(C)cc1 [R4=Et; R5=CH2 CH2 OCH2 CH2 OMe; R6=H] in this work.
A kinact/KI of 460000 M⁻¹ s⁻¹ was found for CCC[C@@H](NC(=O)N1C(=O)C(CC)(CC)[C@@H]1Oc1ccc(C(C)N2CCOCC2)cc1)c1ccc(C)cc1 (some centres unmarked) [R4+R5=--CH2 CH2 OCH2 CH2 --; R6=Me] in this work.
A kinact/KI of 500000 M⁻¹ s⁻¹ was found for CCC[C@@H](NC(=O)N1C(=O)C(CC)(CC)[C@@H]1Oc1ccc(CN(CCOC)C(C)C)cc1)c1ccc(C)cc1 [R4=i-Pr; R5=CH2 CH2 OMe; R6=H] in this work.
A kinact/KI of 1e+06 M⁻¹ s⁻¹ was found for CCC[C@@H](NC(=O)N1C(=O)C(CC)(CC)[C@@H]1Oc1ccc(CN(C)CC2CCCO2)cc1)c1ccc(C)cc1 (some centres unmarked) [R4=Me; R5=CH2 CH(CH2 CH2 CH2 O); R6=H] in this work.
A kinact/KI of 1.6e+06 M⁻¹ s⁻¹ was found for CCC[C@@H](NC(=O)N1C(=O)C(CC)(CC)[C@@H]1Oc1ccc(CNC(=O)NCc2ccccc2)cc1)c1ccc(C)cc1 [R4=H; R5=CONH Bn; R6=H, (4S)-3,3-Diethyl-1-[(R)-α-(n-propyl)-4-(methyl)benzylaminocarbonyl]-4-[(4-((N-benzyl)aminocarbonyl)aminomethyl)phenoxy]azetidin-2-one] in this work.
A kinact/KI of 765000 M⁻¹ s⁻¹ was found for CCC[C@@H](NC(=O)N1C(=O)C(CC)(CC)[C@@H]1Oc1ccc(CN2CCC(OC)C2)cc1)c1ccc(C)cc1 (some centres unmarked) [R4+R5=--CH2 CH2 CH(OMe)CH2 --; R6=H] in this work.
A kinact/KI of 230000 M⁻¹ s⁻¹ was found for CCC[C@@H](NC(=O)N1C(=O)C(CC)(CC)[C@@H]1Oc1ccc(CN(C)CCOC(=O)C(C)(C)C)cc1)c1ccc(C)cc1 [R4=Me; R5=CH2 CH2 OCOCMe3; R6=H] in this work.
A kinact/KI of 600000 M⁻¹ s⁻¹ was found for CCC[C@@H](NC(=O)N1C(=O)C(CC)(CC)[C@@H]1Oc1ccc(C(C)N(CC)CCOC)cc1)c1ccc(C)cc1 (some centres unmarked) [R4=Et; R5=CH2 CH2 OMe; R6=Me] in this work.
A kinact/KI of 1.6e+06 M⁻¹ s⁻¹ was found for CCC[C@@H](NC(=O)N1C(=O)C(CC)(CC)[C@@H]1Oc1ccc(Cn2ccnc2)cc1)c1ccc(C)cc1 [R4+R5=--CHCHNCH--; R6=H] in this work.
A kinact/KI of 1.55e+06 M⁻¹ s⁻¹ was found for CCC[C@@H](NC(=O)N1C(=O)C(CC)(CC)[C@@H]1Oc1ccc(CN2CCC[C@H]2COC)cc1)c1ccc(C)cc1 in this work.
A kinact/KI of 440000 M⁻¹ s⁻¹ was found for CCC[C@@H](NC(=O)N1C(=O)C(CC)(CC)[C@@H]1Oc1ccc(CN(C)CCC(=O)O)cc1)c1ccc(C)cc1 [R4=Me; R5=CH2 CH2 CO2 H--TFA; R6=H] in this work.
A kinact/KI of 1.3e+06 M⁻¹ s⁻¹ was found for CCCCN(C)C(=O)OCCN(C)Cc1ccc(O[C@@H]2N(C(=O)N[C@H](CCC)c3ccc(C)cc3)C(=O)C2(CC)CC)cc1 [R4=Me; R5=CH2 CH2 OCON(Me)n-Bu; R6=H] in this work.
A kinact/KI of 850000 M⁻¹ s⁻¹ was found for CCC[C@@H](NC(=O)N1C(=O)C(CC)(CC)[C@@H]1Oc1ccc(CN(C)CCN(C)C(=O)N(C)C)cc1)c1ccc(C)cc1 [R4=Me; R5=CH2 CH2 N(Me)CONMe2; R6=H] in this work.
A kinact/KI of 1.1e+06 M⁻¹ s⁻¹ was found for CCC[C@@H](NC(=O)N1C(=O)C(CC)(CC)[C@@H]1Oc1ccc(CN(C)CCN(C)C(=O)OC)cc1)c1ccc(C)cc1 [R4=Me; R5=CH2 CH2 N(Me)COOMe; R6=H] in this work.

Same assay, conditions: pH 7.5, Table III; second order rate constant for inactivation of the enzyme; read-out: Kobs /[I]
A kinact/KI of 1.3e+06 M⁻¹ s⁻¹ was found for CCC[C@@H](NC(=O)N1C(=O)C(CC)(CC)[C@@H]1Oc1ccc(C(C)N(C)CCOC)cc1)c1ccc2c(c1)OCO2 (some centres unmarked) in this work.
A kinact/KI of 1e+06 M⁻¹ s⁻¹ was found for CCC[C@@H](NC(=O)N1C(=O)C(CC)(CC)[C@@H]1Oc1ccc(CN(C)CCOC)c(Cl)c1)c1ccc(C)cc1 in this work.
A kinact/KI of 300000 M⁻¹ s⁻¹ was found for CCC[C@@H](NC(=O)N1C(=O)C(CC)(CC)[C@@H]1Oc1cc(C)c(CN(C)CCOC)c(C)c1)c1ccc(C)cc1 in this work.
A kinact/KI of 1.05e+06 M⁻¹ s⁻¹ was found for CCC[C@@H](NC(=O)N1C(=O)C(CC)(CC)[C@@H]1Oc1ccc(CN(CC)C(C)COC)cc1)c1ccc2occc2c1 (some centres unmarked) in this work.
A kinact/KI of 900000 M⁻¹ s⁻¹ was found for CCC[C@@H](NC(=O)N1C(=O)C(CC)(CC)[C@@H]1Oc1ccc(CN(C)CCOC)cc1)c1ccc(OC)cc1 in this work.
A kinact/KI of 550000 M⁻¹ s⁻¹ was found for CCC[C@@H](NC(=O)N1C(=O)C(CC)(CC)[C@@H]1Oc1ccc(CN(CC)CCOC)c(Cl)c1)c1ccc(C)cc1 in this work.
A kinact/KI of 1e+06 M⁻¹ s⁻¹ was found for CCC[C@@H](NC(=O)N1C(=O)C(CC)(CC)[C@@H]1Oc1ccc(CN(CC)CCOC)cc1)c1ccc(OC)cc1 in this work.
A kinact/KI of 1.7e+06 M⁻¹ s⁻¹ was found for CCC[C@@H](NC(=O)N1C(=O)C(CC)(CC)[C@@H]1Oc1ccc(CN(CC)CCOCCOC)c(OC)c1)c1ccc(C)cc1 in this work.
A kinact/KI of 1.9e+06 M⁻¹ s⁻¹ was found for CCC[C@@H](NC(=O)N1C(=O)C(CC)(CC)[C@@H]1Oc1ccc(CN(CC)CCOC)cc1)c1ccc2c(c1)OCO2 in this work.
